Reference: BindingDB's records for patent US12338253 (Applied Pharmaceutical Science, 2025)

Molecular target: Proto-oncogene tyrosine-protein kinase receptor Ret [V804M] (Human, UniProt P07949, V804M)
Test: Kinase Activity Assay

Chain of Proto-oncogene tyrosine-protein kinase receptor Ret [V804M] (P07949 29-1114 V804M limits assumed): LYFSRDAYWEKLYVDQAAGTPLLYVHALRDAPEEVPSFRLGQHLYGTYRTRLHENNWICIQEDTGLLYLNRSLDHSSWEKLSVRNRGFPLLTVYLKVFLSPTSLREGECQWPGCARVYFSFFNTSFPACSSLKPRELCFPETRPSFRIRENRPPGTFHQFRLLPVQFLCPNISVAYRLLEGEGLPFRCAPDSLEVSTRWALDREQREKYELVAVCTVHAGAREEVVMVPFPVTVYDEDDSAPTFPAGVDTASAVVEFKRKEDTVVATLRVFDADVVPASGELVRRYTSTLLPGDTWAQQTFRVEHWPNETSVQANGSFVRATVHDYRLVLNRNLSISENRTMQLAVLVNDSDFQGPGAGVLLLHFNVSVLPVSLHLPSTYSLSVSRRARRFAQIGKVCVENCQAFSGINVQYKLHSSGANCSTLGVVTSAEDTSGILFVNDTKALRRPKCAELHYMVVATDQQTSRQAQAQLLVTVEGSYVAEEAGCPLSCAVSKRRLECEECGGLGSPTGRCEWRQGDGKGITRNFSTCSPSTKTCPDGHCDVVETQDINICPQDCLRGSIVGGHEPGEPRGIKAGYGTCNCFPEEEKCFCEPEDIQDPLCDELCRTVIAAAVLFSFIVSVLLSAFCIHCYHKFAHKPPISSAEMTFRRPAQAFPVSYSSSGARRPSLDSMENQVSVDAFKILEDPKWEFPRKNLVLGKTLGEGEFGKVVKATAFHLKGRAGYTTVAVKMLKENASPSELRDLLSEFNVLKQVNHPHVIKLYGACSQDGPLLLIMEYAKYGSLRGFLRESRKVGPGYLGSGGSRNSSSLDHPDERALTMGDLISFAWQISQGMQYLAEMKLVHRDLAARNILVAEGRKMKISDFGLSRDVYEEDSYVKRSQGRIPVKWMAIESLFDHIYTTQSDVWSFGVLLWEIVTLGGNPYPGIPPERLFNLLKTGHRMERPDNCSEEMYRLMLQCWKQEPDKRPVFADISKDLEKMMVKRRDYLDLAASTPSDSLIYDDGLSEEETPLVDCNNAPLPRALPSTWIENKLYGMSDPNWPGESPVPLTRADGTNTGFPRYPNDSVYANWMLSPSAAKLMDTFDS

## COc1ccc(CN2C3CC2CN(c2ccc(-c4cc(OC[C@@H]5CNCCO5)cn5nc6[nH]ncc6c45)cn2)C3)cn1 [US12338253, Compound 17]
  IC50: 0.1 nM
